Where a name gives a salt, the structure may show the parent alone.
Experiments:
[1] = in mice; cited from earlier work
[2] = system: APAP-induced liver injury; conditions: cited from earlier work
CCR2 = conditions: cited from earlier work
[3] = system: CCL2-mediated chemotaxis of activated murine macrophages (F4/80+/CD11b+); test: Ex vivo CCL2-induced chemotaxis of activated mouse macrophages (Transwell); type: cell-based; conditions: 2 hours
Procedure: Mouse monocyte migration in response to CVC treatment was assessed ex vivo in triplicate. TG was injected intraperitoneally into male C57BL/6 mice (n = 3; 8–10 weeks of age; Jackson Laboratory, USA) and activated macrophages were collected 48 hours later by peritoneal lavage. Chemotaxis was assayed using a Transwell® Chamber (Costar, USA) with a 5 μm-pore size polycarbonate filter, as previously described. Briefly, cells were incubated for 2 hours in the presence of 1 nM CCL2 and/or 1 μM CVC (dissolved in dimethyl sulfoxide with 0.5% acetic acid and diluted 1:1000 with serum-free Roswell Park Memorial Institute-1640 medium and 0.5% bovine serum albumin). Cells were harvested from the lower compartment and analyzed by flow cytometry to enumerate F4/80^+CD11b^+ macrophages using a 3-laser BD FACSCanto™ (BD Biosciences, Canada). Results were analyzed using FlowJo software (Tree Star Inc., USA).
In the peritonitis mouse model, one-way analysis of variance with post-hoc Dunnett’s test was performed, using GraphPad Prism® (GraphPad Software, Inc., USA), on differential cell counts obtained from lavage in treatment groups versus the vehicle-control group. For the ex vivo migration of mouse monocytes, statistical significance was determined by a Student’s t test.

diet-induced NASH = test: Mouse model of diet-induced NASH; type: in vivo; conditions: for NAS, mean (±SD): vehicle 5.3 (±0.5); for Liver hydroxyproline content: vehicle 0.75±0.18; for Percentage of inflammation area (F4/80+ area): vehicle 4.99±1.10; for M1/M2 ratio (F4/80+CD16/32+ / F4/80+CD206+): vehicle 99.6±20.2; for Reduction in modified fibrosis area (perivascular space subtracted) vs vehicle control / Reduction in percentage of fibrosis area vs vehicle control: p < 0.01; for Plasma CCL2 levels: vehicle 60±4
Procedure: NASH was induced in male C57BL/6 mice (Charles River Laboratories, Japan) via subcutaneous injection of 200 μg of streptozotocin 2 days post-birth (causing mild islet inflammation and islet destruction) plus a high-fat diet (57 kcal% fat) from 4 weeks of age (sequentially causing fatty changes to the liver, NASH and fibrosis). From Weeks 6 to 9, three groups (n = 9/group) received vehicle control, CVC20 or CVC100 BID PO (S1 Table). At Week 9, six animals per group were sacrificed for assessment of liver fibrosis and Non-Alcoholic Fatty Liver Disease (NAFLD) Activity Score (NAS). The animals were sacrificed by exsanguination through direct cardiac puncture under ether anesthesia. Study endpoints included: body and liver weights, plasma biochemistry (e.g. ALT and CCL2), extracellular matrix protein in liver tissue (hydroxyproline content), mRNA expression (collagen type 1, tumor necrosis factor-alpha, MCP-1, TIMP1) and histopathological analyses. Blood samples were collected and plasma samples derived for biochemistry assessments. Sections were cut from paraffin blocks of liver tissue, prefixed in Bouin’s solution and stained with H&E for histological examination.
In the TAA model, serum ALT/AST levels were measured using VITROS® 5,1 FS (Ortho Clinical Diagnostics, USA), with plasma diluted with VITROS® 7% bovine serum albumin if needed. In the NASH model, plasma ALT levels were measured by FUJI DRI-CHEM 7000 (Fujifilm, Japan) and plasma CCL2 concentration quantified by the mouse CCL2/JE/MCP-1 immunoassay kit (R&D, USA).
In the NASH model, bright field images of picrosirius red-stained sections were captured around the central vein using a digital camera (DFC280; Leica, Germany) at 200x magnification; the ‘positive’ areas in five fields/sections were measured using ImageJ software (National Institutes of Health, USA). Perivascular areas were subtracted from the total positive areas for each field (modified fibrosis area). The NAS, a histological tool developed to assess disease severity in humans, was assessed in a blinded fashion and calculated according to Kleiner’s criteria on H&E-stained sections. It is based on the semi-quantification of steatosis, lobular inflammation and hepatocellular ballooning.
In the NASH model, liver sections fixed in acetone were incubated with anti-F4/80 antibody (BMA Biomedicals, Switzerland) to assess inflammation. Double immunohistochemical analyses were performed with anti-CD206 (RayBiotec, USA) or anti-CD16/32 (BD Biosciences, USA) antibodies. Cells were counted and the M1/M2 polarization ratio was calculated as mean percentage of F4/80+CD16/32+ cells/mean percentage of F4/80+CD206+ cells.
In the NASH model, frozen liver samples were subjected to an alkaline-acid hydrolysis, then centrifuged, and the supernatant collected. Hydroxyproline content was quantified against a hydroxyproline standard curve, with a BCA protein assay kit (Thermo Fisher Scientific, USA) used to normalize the calculated hydroxyproline values.
In the hepatic-fibrosis models, RNA was extracted from liver tissues and purified, and 1 μg of total mRNA was reverse-transcribed into complementary DNA. Expression levels were determined by quantitative polymerase chain reaction (PCR) (iQ™ SYBR® Green Supermix [Bio-Rad Laboratories, USA] on the LightCycler® 480 Real-Time PCR System [Roche, Switzerland]) in the TAA model at Week 8 (early intervention and established fibrosis) and Week 12 (cirrhosis reversal), and by real-time PCR (PCR Dice® and SYBR® Premix Ex Taq™ [Takara Bio Inc., Japan]) at Week 9 in the NASH model.
Relative mRNA expression levels were normalized to the following reference genes: TAA model, GAPDH; NASH model, 36B4 (gene symbol: Rplp0); UUO model, hypoxanthine phosphoribosyltransferase.
In the NASH model, data are expressed as mean ±standard deviation (SD). Statistical analyses were performed using the Bonferroni multiple comparison test (GraphPad Prism® 4 software).

[4] = acute APAP-induced liver injury

SMILES: CCCCOCCOc1ccc(-c2ccc3c(c2)/C=C(/C(=O)Nc2ccc([S@@+]([O-])Cc4cncn4CCC)cc2)CCCN3CC(C)C)cc1 [CVC, cenicriviroc mesylate]
- Half-life [1]: ~ 2 hours
- Infiltration of Ly6Chi monocyte-derived macrophages into the liver ([2]; APAP model, preliminary data): significantly decreased
- ALT levels relative to vehicle control [2, 4]: significant reduction
- Necrotic area relative to vehicle control [2, 4]: significant reduction
- Occupancy for CCR2 (blood and spleen) in proinflammatory monocytes (CCR2; CVC 250 nM, murine cryopreserved PBMC ex vivo): > 90%
- CCR2 occupancy (CCR2; CVC concentrations of 250 nmol/L or higher, mouse monocytes and macrophages ex vivo): > 87%
- Average fold change in migrating cells (±SD) compared to untreated and unstimulated cells ([3]; CCL2-stimulated (1 nM) cells treated with CVC 1 μM): 0.8±0.2 fold
- Average fold change in migrating cells (±SD) compared to untreated and unstimulated cells ([3]; unstimulated cells treated with CVC 1 μM): 0.7±0.4 fold
- Hepatocyte ballooning score 0, number of animals (diet-induced NASH; CVC20, n = 6): 0
- Hepatocyte ballooning score 1, number of animals (diet-induced NASH; CVC20, n = 6): 3
- Hepatocyte ballooning score 2, number of animals (diet-induced NASH; CVC20, n = 6): 3
- Lobular inflammation score 0, number of animals (diet-induced NASH; CVC20, n = 6): 0
- Lobular inflammation score 1, number of animals (diet-induced NASH; CVC20, n = 6): 3
- Lobular inflammation score 2, number of animals (diet-induced NASH; CVC20, n = 6): 3
- Lobular inflammation score 3, number of animals (diet-induced NASH; CVC20, n = 6): 0
- Steatosis score 0, number of animals (diet-induced NASH; CVC20, n = 6): 0
- Steatosis score 1, number of animals (diet-induced NASH; CVC20, n = 6): 6
- Steatosis score 2, number of animals (diet-induced NASH; CVC20, n = 6): 0
- Steatosis score 3, number of animals (diet-induced NASH; CVC20, n = 6): 0
- NAS, mean (±SD) (diet-induced NASH; CVC20, n = 6, p = 0.0013): 4.0 (±0.6)
- Reduction in collagen type 1 mRNA expression vs vehicle control (diet-induced NASH; CVC20, p < 0.05): 37%
- Liver hydroxyproline content (diet-induced NASH; CVC20): 0.63 ± 0.05 µg/mg
- Percentage of inflammation area (F4/80+ area) (diet-induced NASH; CVC20, not significant): 4.77±1.02%
- M1/M2 ratio (F4/80+CD16/32+ / F4/80+CD206+) (diet-induced NASH; CVC20, not significant): 112.3±17.0%
- Reduction in modified fibrosis area (perivascular space subtracted) vs vehicle control (diet-induced NASH; CVC20 BID PO Weeks 6-9): 52.5%
- Reduction in percentage of fibrosis area vs vehicle control (diet-induced NASH; CVC20 BID PO Weeks 6-9): 40.0%
- Plasma CCL2 levels (diet-induced NASH; CVC20 BID PO Weeks 6-9, not significant): 68 ± 16 pg/mL
- Hepatocyte ballooning score 0, number of animals (diet-induced NASH; CVC100, n = 6): 1
- Hepatocyte ballooning score 1, number of animals (diet-induced NASH; CVC100, n = 6): 2
- Hepatocyte ballooning score 2, number of animals (diet-induced NASH; CVC100, n = 6): 3
- Lobular inflammation score 0, number of animals (diet-induced NASH; CVC100, n = 6): 0
- Lobular inflammation score 1, number of animals (diet-induced NASH; CVC100, n = 6): 3
- Lobular inflammation score 2, number of animals (diet-induced NASH; CVC100, n = 6): 3
- Lobular inflammation score 3, number of animals (diet-induced NASH; CVC100, n = 6): 0
- Steatosis score 0, number of animals (diet-induced NASH; CVC100, n = 6): 1
- Steatosis score 1, number of animals (diet-induced NASH; CVC100, n = 6): 5
- Steatosis score 2, number of animals (diet-induced NASH; CVC100, n = 6): 0
- Steatosis score 3, number of animals (diet-induced NASH; CVC100, n = 6): 0
- NAS, mean (±SD) (diet-induced NASH; CVC100, n = 6, p = 0.0009): 3.7 (±0.8)
- Reduction in collagen type 1 mRNA expression vs vehicle control (diet-induced NASH; CVC100, not statistically significant): 27%
- Liver hydroxyproline content (diet-induced NASH; CVC100): 0.62 ± 0.09 µg/mg
- M1/M2 ratio (F4/80+CD16/32+ / F4/80+CD206+) (diet-induced NASH; CVC100, not significant): 125.1±21.9%
- Reduction in modified fibrosis area (perivascular space subtracted) vs vehicle control (diet-induced NASH; CVC100 BID PO Weeks 6-9): 67.2%
- Reduction in percentage of fibrosis area vs vehicle control (diet-induced NASH; CVC100 BID PO Weeks 6-9): 41.8%
- Plasma CCL2 levels (diet-induced NASH; CVC100 BID PO Weeks 6-9, significant increase): 91 ± 14 pg/mL
- Percentage of inflammation area (F4/80+ area) (diet-induced NASH; CVC-high, not significant): 4.96±0.60%
- mRNA expression levels of the other fibrosis markers tested, vehicle control vs CVC groups (diet-induced NASH; NASH model, Week 9): no statistically significant differences
- Plasma ALT levels vs vehicle control (diet-induced NASH; both CVC doses (CVC20, CVC100 BID PO Weeks 6-9), p < 0.05): significantly decreased

From article PMC4922569, “Antifibrotic Effects of the Dual CCR2/CCR5 Antagonist Cenicriviroc in Animal Models of Liver and Kidney Fibrosis” (PLoS ONE, 2016)
